Counter-ions that a name gives are not always drawn.
The compounds below were run against human KDR protein in HEK-293 cells (Homo sapiens (Human), UniProt P35968) (assay: KDR Cell Assay (phospho-KDR in HEK-293 cells expressing inducible KDR)). Settings: pKDR Cell HEK 10% FBS IC50, HEK-293 cells expressing inducible KDR, VEGF stimulated.
Format: cell-based
Experimental: The cellular potency of a compound inhibiting KDR kinase was determined in HEK-293 cells expressing an inducible human KDR protein. […] The cells were incubated for 1 hour with test compound in DMEM at a final DMSO concentration of 0.25%. […] The media was aspirated and 35 μL of a 1× lysis buffer was added. […] The lysate was stored at −80° C. until ready for assay. Phospho-KDR was measured using a phospho-KDR kit (Catalog #K151BOC) purchased from Meso Scale Diagnostics (Rockville, Md.) according to the manufacturer's instructions. All values are expressed as percent of percent of control (POC). The POC values were fitted to a 4 parameter logistic curve fit and the IC50 value is point where the curve crosses 50 POC.

Sequence of human KDR protein in HEK-293 cells (P35968 20-1356): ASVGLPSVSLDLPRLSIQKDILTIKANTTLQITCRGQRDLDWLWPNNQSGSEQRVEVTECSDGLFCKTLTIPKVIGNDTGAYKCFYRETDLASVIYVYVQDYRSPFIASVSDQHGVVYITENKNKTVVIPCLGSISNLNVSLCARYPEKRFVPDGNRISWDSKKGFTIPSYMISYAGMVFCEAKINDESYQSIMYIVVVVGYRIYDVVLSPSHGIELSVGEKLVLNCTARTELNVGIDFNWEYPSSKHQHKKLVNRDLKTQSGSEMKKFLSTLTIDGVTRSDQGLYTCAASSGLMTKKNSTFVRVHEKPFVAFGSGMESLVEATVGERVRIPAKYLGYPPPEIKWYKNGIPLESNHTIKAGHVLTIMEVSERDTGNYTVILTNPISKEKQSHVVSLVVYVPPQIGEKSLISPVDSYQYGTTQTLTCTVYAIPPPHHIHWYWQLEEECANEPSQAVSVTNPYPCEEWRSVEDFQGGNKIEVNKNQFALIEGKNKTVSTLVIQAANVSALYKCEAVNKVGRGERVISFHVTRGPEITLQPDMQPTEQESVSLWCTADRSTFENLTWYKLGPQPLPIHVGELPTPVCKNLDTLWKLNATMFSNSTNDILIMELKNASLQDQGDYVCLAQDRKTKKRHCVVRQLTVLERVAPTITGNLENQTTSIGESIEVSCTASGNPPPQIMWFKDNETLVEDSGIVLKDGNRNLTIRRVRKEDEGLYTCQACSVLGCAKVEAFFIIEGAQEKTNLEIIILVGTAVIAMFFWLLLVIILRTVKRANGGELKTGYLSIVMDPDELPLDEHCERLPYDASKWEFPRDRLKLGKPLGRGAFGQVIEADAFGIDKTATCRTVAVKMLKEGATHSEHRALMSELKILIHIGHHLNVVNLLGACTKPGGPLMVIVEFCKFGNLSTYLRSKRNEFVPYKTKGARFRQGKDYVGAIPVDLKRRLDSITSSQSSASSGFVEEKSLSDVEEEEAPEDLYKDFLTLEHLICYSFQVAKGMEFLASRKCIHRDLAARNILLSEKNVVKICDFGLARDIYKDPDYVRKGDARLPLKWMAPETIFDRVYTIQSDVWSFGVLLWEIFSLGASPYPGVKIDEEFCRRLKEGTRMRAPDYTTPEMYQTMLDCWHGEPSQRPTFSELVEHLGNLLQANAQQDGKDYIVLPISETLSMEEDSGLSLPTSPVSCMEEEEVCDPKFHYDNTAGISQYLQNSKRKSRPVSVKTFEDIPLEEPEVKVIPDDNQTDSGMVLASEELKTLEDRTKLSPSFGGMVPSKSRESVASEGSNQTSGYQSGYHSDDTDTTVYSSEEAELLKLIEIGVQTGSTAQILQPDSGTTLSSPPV

IC50	SMILES
1240 nM	Cn1cc(-c2cc(-c3ccc(N4CCN(Cc5ccn(C)n5)CC4)nc3)c3c(C#N)cnn3c2)cn1 [Example 439, 4-(6-(4-((1-methyl-1H-pyrazol-3-yl)methyl)piperazin-l-yl)pyridin-3-yl)-6-(1-methyl-1H-pyrazol-4-yl)pyrazolo[1,5-a]pyridine-3-carbonitrile]
467 nM	COc1cccc(CN2CCN(c3ccc(-c4cc(-c5cnn(C)c5)cn5ncc(C#N)c45)cn3)CC2)c1 [Example 450, 4-(6-(4-(3-methoxybenzyl)piperazin-1-yl)pyridin-3-yl)-6-(1-methyl-1H-pyrazol-4-yl)pyrazolo[1,5-a]pyridine-3-carbonitrile]

Continued, compound first:

SMILES	IC50
Cn1cc(-c2cc(-c3ccc(N4CCC5(CCCN(C(=O)OC(C)(C)C)C5)C4)nc3)c3c(C#N)cnn3c2)cn1 (stereo not drawn) [Example 518, tert-butyl 2-(5-(3-cyano-6-(1-methyl-1H-pyrazol-4-yl)pyrazolo[1,5-a]pyridin-4-yl)pyridin-2-yl)-2,7-diazaspiro[4.5]decane-7-carboxylate]	4630 nM
Cn1cc(-c2cc(-c3ccc(N4CCC5(CCOC5)C4)nc3)c3c(C#N)cnn3c2)cn1 (stereo not drawn) [Example 530, 4-(6-(2-oxa-7-azaspiro[4.4]nonan-7-yl)pyridin-3-yl)-6-(1-methyl-1H-pyrazol-4-yl)pyrazolo[1,5-a]pyridine-3-carbonitrile 2,2,2-trifluoroacetate]	1540 nM
Cn1cc(-c2cc(-c3ccc(N4CCC5(CCN(C(=O)OC(C)(C)C)CC5)C4)nc3)c3c(C#N)cnn3c2)cn1 [Example 517, tert-butyl 2-(5-(3-cyano-6-(1-methyl-1H-pyrazol-4-yl)pyrazolo[1,5-a]pyridin-4-yl)pyridin-2-yl)-2,8-diazaspiro[4.5]decane-8-carboxylate]	1790 nM
Cn1cc(-c2cc(-c3ccc(C4CN(Cc5ccccc5)C4)nc3)c3c(C#N)cnn3c2)cn1 [Example 580, 4-(6-(1-benzylazetidin-3-yl)pyridin-3-yl)-6-(1-methyl-1H-pyrazol-4-yl)pyrazolo[1,5-a]-pyridine-3-carbonitrile]	1240 nM
Cn1cc(-c2cc(-c3ccc(N4CCC5(CC4)CC(N)C5)nc3)c3c(C#N)cnn3c2)cn1 [Example 544, 4-(6-(2-amino-7-azaspiro[3.5]nonan-7-yl)pyridin-3-yl)-6-(1-methyl-1H-pyrazol-4-yl)pyrazolo[1,5-a]pyridine-3-carbonitrile dihydrochloride]	234 nM
Cn1cc(-c2cc(-c3ccc(N4CCC5(CCN(C(=O)OC(C)(C)C)C5)C4)nc3)c3c(C#N)cnn3c2)cn1 (stereo not drawn) [Example 519, tert-butyl 7-(5-(3-cyano-6-(1-methyl-1H-pyrazol-4-yl)pyrazolo[1,5-a]pyridin-4-yl)pyridin-2-yl)-2,7-diazaspiro[4.4]nonane-2-carboxylate]	1250 nM

Same assay, conditions: pKDR Cell HEK 10% FBS IC50, HEK-293 cells expressing inducible KDR, VEGF stimulated, 10% FBS

IC50	SMILES
270 nM	Cn1cc(-c2cc(-c3ccc(N4CCN(C(=O)C5(c6ccccc6)CC5)CC4)nc3)c3c(C#N)cnn3c2)cn1 [Example 25, 6-(1-methyl-1H-pyrazol-4-yl)-4-(6-(4-(1-phenylcyclopropane-1-carbonyl)piperazin-1-yl)pyridin-3-yl)pyrazolo[1,5-a]pyridine-3-carbonitrile]
60.1 nM	Cn1cc(-c2cc(-c3ccc(N4CCN(S(=O)(=O)C5CCOCC5)CC4)nc3)c3c(C#N)cnn3c2)cn1 [Example 91, 6-(1-methyl-1H-pyrazol-4-yl)-4-(6-(4-((tetrahydro-2H-pyran-4-yl)sulfonyl)piperazin-1-yl)pyridin-3-yl)pyrazolo[1,5-a]pyridine-3-carbonitrile]
1760 nM	CN(C)C(C(=O)N1CCN(c2ccc(-c3cc(-c4cnn(C)c4)cn4ncc(C#N)c34)cn2)CC1)c1ccc(F)cc1 (stereo not drawn) [Example 351, 4-(6-(4-(2-(dimethylamino)-2-(4-fluorophenyl)acetyl)piperazin-1-yl)pyridin-3-yl)-6-(1-methyl-1H-pyrazol-4-yl)pyrazolo[1,5-a]pyridine-3-carbonitrile]
243 nM	Cn1cc(-c2cc(-c3ccc(N4CCN(C(=O)Cc5ccccn5)CC4)nc3)c3c(C#N)cnn3c2)cn1 [Example 5, 6-(1-methyl-1H-pyrazol-4-yl)-4-(6-(4-(2-(pyridin-2-yl)acetyl)piperazin-1-yl)pyridin-3-yl)pyrazolo[1,5-a]pyridine-3-carbonitrile]
1290 nM	COCC1(C(=O)N2CCN(c3ccc(-c4cc(-c5cnn(C)c5)cn5ncc(C#N)c45)cn3)CC2)CCC1 [Example 354, 4-(6-(4-(1-(methoxymethyl)cyclobutanecarbonyl)piperazin-1-yl)pyridin-3-yl)-6-(1-methyl-1H-pyrazol-4-yl)pyrazolo[1,5-a]pyridine-3-carbonitrile]
1410 nM	Cn1cc(-c2cc(-c3ccc(N4CCN(C(=O)C5(C#N)CC5)CC4)nc3)c3c(C#N)cnn3c2)cn1 [Example 348, 4-(6-(4-(1-cyanocyclopropane-carbonyl)piperazin-1-yl)pyridin-3-yl)-6-(1-methyl-1H-pyrazol-4-yl)pyrazolo[1,5-a]pyridine-3-carbonitrile]

Continued, compound first:

SMILES	IC50
C[C@@H](CO)Cn1cc(-c2cc(-c3ccc(N4CCN(C(=O)CC(C)(C)C)CC4)cc3)c3c(C#N)cnn3c2)cn1 [Example 306, (R)-4-(4-(4-(3,3-dimethylbutanoyl)piperazin-1-yl)phenyl)-6-(1-(3-hydroxy-2-methylpropyl)-1H-pyrazol-4-yl)pyrazolo[1,5-a]pyridine-3-carbonitrile]	880 nM
CO[C@H]1CCN(C(=O)N2CCN(c3cnc(-c4cc(-c5cnn(C)c5)cn5ncc(C#N)c45)cn3)CC2)C1 [Example 289, (S)-4-(5-(4-(3-methoxypyrrolidine-1-carbonyl)piperazin-1-yl)pyrazin-2-yl)-6-(1-methyl-1H-pyrazol-4-yl)pyrazolo[1,5-a]pyridine-3-carbonitrile]	229 nM
Cn1cc(-c2cc(-c3ccc(N4CCN(C(=O)CCc5cccnc5)CC4)nc3)c3c(C#N)cnn3c2)cn1 [Example 43, 6-(1-methyl-1H-pyrazol-4-yl)-4-(6-(4-(3-(pyridin-3-yl)propanoyl)piperazin-1-yl)pyridin-3-yl)pyrazolo[1,5-a]pyridine-3-carbonitrile bis(2,2,2-trifluoroacetate)]	653 nM
Cn1cc(-c2cc(-c3ccc(N4CCCC4)nc3)c3c(Cl)cnn3c2)cn1 [Example 339, 3-chloro-6-(1-methyl-1H-pyrazol-4-yl)-4-(6-(pyrrolidin-1-yl)pyridin-3-yl)pyrazolo[1,5-a]pyridine]	3700 nM
Cn1cc(-c2cc(-c3ccc(N4CCN(C(=O)CC(C)(C)C)CC4)cc3)c3c(C#N)cnn3c2)cn1 [Example 294, 4-(4-(4-(3,3-dimethylbutanoyl)piperazin-1-yl)phenyl)-6-(1-methyl-1H-pyrazol-4-yl)pyrazolo[1,5-a]pyridine-3-carbonitrile]	2100 nM
Cn1cc(-c2cc(-c3ccc(N4CCN(C(=O)CC(C)(C)O)C5(CC5)C4)nc3)c3c(C#N)cnn3c2)cn1 [Example 168, 4-(6-(4-(3-hydroxy-3-methylbutanoyl)-4,7-diazaspiro[2.5]octan-7-yl)pyridin-3-yl)-6-(1-methyl-1H-pyrazol-4-yl)pyrazolo[1,5-a]pyridine-3-carbonitrile]	1090 nM
CC(C)NC(=O)[C@@H]1CN(c2ccc(-c3cc(-c4cnn(C)c4)cn4ncc(C#N)c34)cn2)CCO1 [Example 228, (S)-4-(5-(3-cyano-6-(1-methyl-1H-pyrazol-4-yl)pyrazolo[1,5-a]pyridin-4-yl)pyridin-2-yl)-N-isopropylmorpholine-2-carboxamide]	4530 nM
Cn1cc(-c2cc(-c3ccc(N4CCN(C(=O)CC(C)(C)C)C5(CC5)C4)nc3)c3c(C#N)cnn3c2)cn1 [Example 169, 4-(6-(4-(3,3-dimethylbutanoyl)-4,7-diazaspiro[2.5]octan-7-yl)pyridin-3-yl)-6-(1-methyl-1H-pyrazol-4-yl)pyrazolo[1,5-a]pyridine-3-carbonitrile]	1440 nM
CN(C)CC(=O)N1CCN(c2ccc(-c3cc(-c4cnn(C)c4)cn4ncc(C#N)c34)cc2)CC1 [Example 296, 4-(4-(4-(2-(dimethylamino)acetyl)piperazin-1-yl)phenyl)-6-(1-methyl-1H-pyrazol-4-yl)pyrazolo[1,5-a]pyridine-3-carbonitrile]	2350 nM
Cn1cc(-c2cc(-c3ccc(N4CCN(C(=O)C5(c6cccc(F)c6)CC5)CC4)nc3)c3c(C#N)cnn3c2)cn1 [Example 349, 4-(6-(4-(1-(3-fluorophenyl)cyclopropanecarbonyl)piperazin-1-yl)pyridin-3-yl)-6-(1-methyl-1H-pyrazol-4-yl)pyrazolo[1,5-a]pyridine-3-carbonitrile]	404 nM
Cn1cc(-c2cc(-c3ccc(N4CCN(C(=O)c5c(F)cccc5F)CC4)nc3)c3c(C#N)cnn3c2)cn1 [Example 51, 4-(6-(4-(2,6-difluorobenzoyl)piperazin-1-yl)pyridin-3-yl)-6-(1-methyl-1H-pyrazol-4-yl)pyrazolo[1,5-a]pyridine-3-carbonitrile 2,2,2-trifluoroacetate]	267 nM
Cn1cc(-c2cc(-c3ccc(N4CCN(C(=O)Cc5ccc(OC(F)(F)F)cc5)CC4)nc3)c3c(C#N)cnn3c2)cn1 [Example 357, 6-(1-methyl-1H-pyrazol-4-yl)-4-(6-(4-(2-(4-(trifluoromethoxy)phenyl)acetyl)piperazin-1-yl)pyridin-3-yl)pyrazolo[1,5-a]pyridine-3-carbonitrile 2,2,2-trifluoroacetate]	2040 nM
Cc1nn(C)cc1C(=O)N1CCN(c2ccc(-c3cc(-c4cnn(C)c4)cn4ncc(C#N)c34)cn2)CC1 [Example 41, 4-(6-(4-(1,3-dimethyl-1H-pyrazole-4-carbonyl)piperazin-1-yl)pyridin-3-yl)-6-(1-methyl-1H-pyrazol-4-yl)pyrazolo[1,5-a]pyridine-3-carbonitrile 2,2,2-trifluoroacetate]	871 nM

Source: patent US10023570B2 (Array BioPharma, Inc., priority 2015, dated 2018)
